Source: patent US6949575B2, “Method of inhibiting amyloid protein aggregation and imaging amyloid deposits using aminoindane derivatives” (Pfizer Inc., priority 2000, dated 2005)
Values joined by “and” are separate entries in the source; they are usually repeats but may differ in a detail not shown here. Equal values may be shown once.

Legend:
Soluble Aβ(1-40) = biological target: T1, Soluble Aβ(1-40) (Homo sapiens, UniProt P05067); test: BASST (Beta-Amyloid Self-Seeding, Thioflavin T): inhibitors of self-seeded amyloid fibril growth; format: biochemical; conditions: 30 μM soluble Aβ(1-40), 37° C., 3 to 5 hours, thioflavin T fluorescence
T1 construct: Soluble Aβ(1-40)—2.2 mg/mL in deionized H2O
T1 sequence (P05067 672-711 limits assumed): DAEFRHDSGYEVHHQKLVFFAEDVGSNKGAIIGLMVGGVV
Procedure: • 1) Prepare reaction mixture above by mixing components and storing on ice. • 2) Pipet 14.5 μL of reaction mixture into each of 50 wells on a polypropylene U-bottom 96-well microtiter plate on ice (Costar 3794). • 3) Add 1.7 μL of diluted compound to be tested to each well in a column of eight, including solvent control. Serial 3-fold dilutions from 1 mM (100 μM final) in assay buffer-urea=7 dilutions+zero. Each 96-well plate can therefore accommodate 11 samples+1 Congo Red control (0.039-5 μM final in 2-fold steps). • 4) Seal the plate with aluminum film (Beckman 538619) and incubate for 10 minutes on ice. • 5) Raise the temperature to 37° C. and incubate for 3 to 5 hours (depending on the lot of the peptide). • 6) Remove the aluminum film and add 200 μL/well of ice cold assay buffer with urea, collecting the radiolabeled fibrils by vacuum filtration through 0.2-μm pore size GVWP filters in 96-well plates (Millipore MAGV […], Bedford, Mass.). Determine the radioactivity of the filters using standard methods well-known to those skilled in the art. BASST (Beta-Amyloid Self-Seeding, Thioflavin T) An assay for inhibitors of self-seeded amyloid fibril growth Methods: Materials: Stock Solutions: Assay Buffer-50 mM sodium phosphate, pH 7.5, 100 mM NaCl, 0.02% NaN3, 1 M urea (filter and store at 4° C.) Soluble Aβ(1-40)-2.2 mg/mL in deionized H2O (store in aliquots at -20° C., keep on ice when thawed) will self-seed after 1 week storage. Typically, the solution should be stored until no lag phase is seen in the assay. Final assay conditions: 30 μM soluble Aβ(1-40) in deionized water in assay buffer. Compound to be tested is dissolved in DMSO, typically 5 to 50 mM stock, such that the final concentration of DMSO is <1% v/v in the assay. Assay: Reaction mixture for 50 assays (on ice) comprised of 1 μL of soluble Aβ(1-40)+13.5 μL assay buffer per assay. The following are the amounts of the components of the reaction mixture that result in each of the 50 assay wells. 50 μL soluble Aβ(1-40) 675 μL assay buffer Assay Method • 1) Prepare the reaction mix above by mixing the components and storing on ice. • 2) Pipet 14.5 μL of reaction mixture into each of 50 wells of a polystyrene U-bottom 96-well microtiter plate (Coming 25881-96) on ice. • 3) Add 1.7 μL of diluted compound to be tested to each well in a column of eight, including solvent control. Serial 3-fold dilutions from 1 mM (100 μM final) in assay buffer-urea=7 dilutions+zero. Each 96-well plate can therefore accommodate 11 samples+1 Congo Red control (0.039-5 μM final in 2-fold steps). • 4) Seal the plate with aluminum film and incubate for 10 minutes on ice. • 5) Raise the temperature to 37° C. and incubate for 3 to 5 hours (depends on the lot of the peptide). • 6) Remove the aluminum film and add 250 μL/well of 5 μM thioflavin T (ThT) [T-3516, Sigma-Aldrich] in 50 mM glycine-NaOH, pH 8.5. Read fluorescence on a plate reader (ex=440 nm/20 nm; em=485 nm/20 nm) within 5 minutes. BAPA (Beta-Amyloid Peptide Aggregation)

Aβ (1-40) peptide = biological target: T2, Aβ (1-40) peptide (Homo sapiens, UniProt P05067); test: BAPA (Beta-Amyloid Peptide Aggregation, pH 6.0), filtration endpoint; format: biochemical; conditions: Aβ(1-40) 33 μM, pH 6.0, 2 to 4 hours, room temperature
T2 construct: Aβ (1-40) peptide in 20% HFIP
T2 sequence (P05067 672-711 limits assumed): as above
Procedure: • 1) Prepare the reaction mix above by mixing the components and storing on ice. • 2) Pipet 14.5 μL of reaction mixture into each of 50 wells of a polystyrene U-bottom 96-well microtiter plate (Coming 25881-96) on ice. • 3) Add 1.7 μL of diluted compound to be tested to each well in a column of eight, including solvent control. Serial 3-fold dilutions from 1 mM (100 μM final) in assay buffer-urea=7 dilutions+zero. Each 96-well plate can therefore accommodate 11 samples+1 Congo Red control (0.039-5 μM final in 2-fold steps). • 4) Seal the plate with aluminum film and incubate for 10 minutes on ice. • 5) Raise the temperature to 37° C. and incubate for 3 to 5 hours (depends on the lot of the peptide). • 6) Remove the aluminum film and add 250 μL/well of 5 μM thioflavin T (ThT) [T-3516, Sigma-Aldrich] in 50 mM glycine-NaOH, pH 8.5. Read fluorescence on a plate reader (ex=440 nm/20 nm; em=485 nm/20 nm) within 5 minutes. BAPA (Beta-Amyloid Peptide Aggregation) This assay is used to provide a measure of inhibition by a compound against the aggregation behavior of the β-amyloid peptide. The purpose of this assay is to provide a higher volume method of assaying the amount of β-amyloid aggregation using an endpoint assay based on filtration. In this assay, hexafluoroisopropanol (HFIP) is used to break down the initial amyloid peptide to a monomer state and use a concentration of 33 μM which is high enough so that aggregation will occur at pH 6.0 in several hours. Methods: Beta-Amyloid Peptide Aggregation, pH 6.0 (BAPA) In a 96-well plate (Costar 3794), we add 25 μL 50 mM phosphate buffer, pH 6.0, 10 μL 0.5 mg/mL Aβ (1-40) peptide in 20% HFIP+0.1 μL/assay radioiodinated ^125I Aβ (1-40) [^125I Aβ(1-40)], and 1 μL of the compound to be tested starting at 50 mM with a concentration of DMSO<1%. Then, we incubate for 2 to 4 hours at room temperature. We stop the reaction with 200 μL of 50 mM phosphate buffer, pH 6.0, and filter it through a 0.2 μm 96-well filter plate (Millipore MAGU […]). We wash the filter plate with 100 μL of the same phosphate buffer. Aggregation was detected on a Microbeta counter after impregnating the filters with Meltilex (1450-441) and is corrected for background.

IC50 (Soluble Aβ(1-40))	IC50 (Aβ (1-40) peptide)	Structure (SMILES)
40 µM	33 µM	CCCCCN(CCCCC)C1Cc2ccc(Nc3ccc([N+](=O)[O-])cc3C(=O)O)cc2C1 (stereo not drawn) [Example 1, 2-[(2-N,N-di-n-pentylamino)-indan-5-yl]amino-5-nitro-benzoic Acid]
30 µM	165 µM	COc1ccc(Nc2ccc3c(c2)CC(NCc2ccc(Cl)c(Cl)c2)C3)c(C(=O)O)c1 (stereo not drawn) [Example 5, 2-[2-(3,4-Dichlorobenzylamino)-indan-5-ylamino]-5-methoxy-benzoic acid]
21 µM and > 100 µM	118 µM	CCCCCN(CCCCC)C1Cc2ccc(Nc3ccc(C)cc3C(=O)O)cc2C1 (stereo not drawn) [Example 6, 2-(2-Dipentylamino-indan-5-yl-amino)-5-methyl-benzoic acid]
8 µM	118 µM	CCCCCN(CCCCC)C1Cc2ccc(Nc3ccc(C(=O)O)cc3[N+](=O)[O-])cc2C1 (stereo not drawn) [Example 7, 4-(2-Dipentylamino-indan-5-yl-amino)-3-nitro-benzoic Acid]
30 µM	> 100 µM	O=C(O)c1cc([N+](=O)[O-])ccc1Nc1ccc2c(c1)CC(NCc1ccc(F)cc1)C2 (stereo not drawn) [Example 10, 2-[2-(4-Fluorobenzylamino)-indan-5-ylamino]-5-nitro-benzoic acid]
> 100 µM	5 µM	CCCCCNC1Cc2ccc(Nc3ccc([N+](=O)[O-])cc3C(=O)O)cc2C1 (stereo not drawn) [Example 12, 2-[2-(n-Pentylamino)-indan-5-ylamino]-5-nitro-benzoic acid]
